Source: the supplement of paper PMC11061612

How the values were obtained:
Assay in all cases: combination Emax (second highest fraction inhibited in the dose matrix, 72 h); higher = more inhibition; extreme values may be limits of the assay
769-P (Kidney Carcinoma) = test system: 769-P (Kidney Carcinoma)
How it was run: (§1)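 After 24 hours at 37°C and 5% CO2 in 1536-well plates, cells in DMEM/F12 or RPMI plus 10% FBS received two-drug dose matrices for 72 hours. Viability came from CellTiter-Glo 2.0 luminescence and was scaled as inhibition, anchored at 0 by vehicle wells and at 1 by blank wells. Combination Emax is taken as the second-highest inhibition in the matrix, and Bliss excess as the observed combination effect less EA + EB − EA·EB, with EA and EB the single-agent effects.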

[1] = test system: A2780 (Ovarian Carcinoma)
How it was run: as §1

[2] = test system: CGTH-W-1 (Thyroid Gland Carcinoma)
How it was run: as §1

IM-9 (Non-Cancerous) = test system: IM-9 (Non-Cancerous)
How it was run: as §1

[3] = test system: JHH-2 (Hepatocellular Carcinoma)
How it was run: as §1

[4] = test system: KYSE-220 (Esophageal Squamous Cell Carcinoma)
How it was run: as §1

[5] = test system: NCI-H1703 (Squamous Cell Lung Carcinoma)
How it was run: as §1

[6] = test system: NCI-H441 (Lung Adenocarcinoma)
How it was run: as §1

[7] = test system: SK-HEP-1 (Hepatocellular Carcinoma)
How it was run: as §1

[8] = test system: UACC-812 (Breast Carcinoma)
How it was run: as §1

Row | SMILES | combination Emax (769-P (Kidney Carcinoma)) | combination Emax [1] | combination Emax [2] | combination Emax (IM-9 (Non-Cancerous)) | combination Emax [3] | combination Emax [4] | combination Emax [5] | combination Emax [6] | combination Emax [7] | combination Emax [8]
1 | O=C(c1cc(Cc2n[nH]c(=O)c3ccccc23)ccc1F)N1CCN(C(=O)C2CC2)CC1 [Olaparib] + CN(CC[C@H](CSC1=CC=CC=C1)NC2=C(C=C(C=C2)S(=O)(=O)NC(=O)C3=CC=C(C=C3)N4CCC(CC4)[C@H](C5=CC=CC=C5C6=CC=C(C=C6)Cl)O)S(=O)(=O)C(F)(F)F)CCO [AZD4320] (first compound max 10 µM, 7x7, partner max 1 µM) | 0.678 | 0.511 | 0.0708 | 0.924 | 0.171 | 0.267 | 0.19 | 0.213 | 0.911 | 0.251
2 | C[C@@H]1COCCN1c1cc(C2([S@](C)(=N)=O)CC2)nc(-c2ccnc3[nH]ccc23)n1 [AZD6738] + Nc1ccn([C@@H]2O[C@H](CO)[C@@H](O)C2(F)F)c(=O)n1 [Gemcitabine] (first compound max 10 µM, 7x7, partner max 0.3 µM) | 0.865 | 0.95 | 0.947 | 1 | 0.716 | 0.857 | 0.954 | 0.568 | 0.645 | 0.66
3 | Cc1c2c(nn1C)CSCc1cc(n(C)n1)CSc1cc(c3ccccc3c1)OCCCc1c(C(=O)O)n(C)c3c-2c(Cl)ccc13 [AZD5991] + CS(=O)(=O)CCNCc1ccc(-c2ccc3ncnc(Nc4ccc(OCc5cccc(F)c5)c(Cl)c4)c3c2)o1 [Lapatinib] (first compound max 1 µM, 7x7, partner max 10 µM) | 0.917 | 0.933 | 0.221 | 0.93 | 0.446 | 0.933 | 0.935 | 0.229 | 0.632 | 0.929
4 | O=C(c1cc(Cc2n[nH]c(=O)c3ccccc23)ccc1F)N1CCN(C(=O)C2CC2)CC1 [Olaparib] + Cc1c2c(nn1C)CSCc1cc(n(C)n1)CSc1cc(c3ccccc3c1)OCCCc1c(C(=O)O)n(C)c3c-2c(Cl)ccc13 [AZD5991] (first compound max 10 µM, 7x7, partner max 1 µM) | 0.261 | 0.924 | 0.0485 | 0.903 | 0.163 | 0.166 | 0.859 | 0.0979 | 0.478 | 0.643
5 | C[C@@H]1COCCN1c1cc(C2([S@](C)(=N)=O)CC2)nc(-c2ccnc3[nH]ccc23)n1 [AZD6738] + C1CC(C1)(C(=O)[O-])C(=O)[O-].N.N.[Pt+2] [Carboplatin] (first compound max 10 µM, 7x7, partner max 10 µM) | 0.878 | 0.81 | 0.302 | 0.966 | 0.507 | 0.827 | 0.932 | 0.394 | 0.166 | 0.381
6 | Cc1c2c(nn1C)CSCc1cc(n(C)n1)CSc1cc(c3ccccc3c1)OCCCc1c(C(=O)O)n(C)c3c-2c(Cl)ccc13 [AZD5991] + CC(=O)O[C@H]1C(=O)[C@@]2(C)[C@H]([C@H](OC(=O)c3ccccc3)[C@]3(O)C[C@H](OC(=O)[C@H](O)[C@@H](NC(=O)c4ccccc4)c4ccccc4)C(C)=C1C3(C)C)[C@]1(OC(C)=O)CO[C@@H]1C[C@@H]2O [Paclitaxel] (first compound max 1 µM, 7x7, partner max 3 µM) | 0.789 | 1 | 0.59 | 1 | 0.783 | 0.745 | 0.993 | 0.401 | 0.857 | 0.794
7 | CS(=O)(=O)CCNCc1ccc(-c2ccc3ncnc(Nc4ccc(OCc5cccc(F)c5)c(Cl)c4)c3c2)o1 [Lapatinib] + Cn1cnc2c(F)c(Nc3ccc(Br)cc3Cl)c(C(=O)NOCCO)cc21 [Selumetinib] (first compound max 10 µM, 7x7, partner max 10 µM) | 0.945 | 0.684 | 0.245 | 0.994 | 0.565 | 0.954 | 0.482 | 0.32 | 0.133 | 0.5
8 | C=CCn1c(=O)c2cnc(Nc3ccc(N4CCN(C)CC4)cc3)nc2n1-c1cccc(C(C)(C)O)n1 [AZD1775] + Nc1ccn([C@@H]2O[C@H](CO)[C@@H](O)C2(F)F)c(=O)n1 [Gemcitabine] (first compound max 1 µM, partner max 0.3 µM) | 0.868 | 0.963 | 0.761 | 1 | 0.735 | 0.793 | 0.984 | 0.55 | 0.514 | 0.626
9 | C=CCn1c(=O)c2cnc(Nc3ccc(N4CCN(C)CC4)cc3)nc2n1-c1cccc(C(C)(C)O)n1 [AZD1775] + CCc1c2c(nc3ccc(O)cc13)-c1cc3c(c(=O)n1C2)COC(=O)[C@]3(O)CC [SN-38] (first compound max 1 µM, partner max 0.3 µM) | 0.881 | 0.94 | 0.703 | 1 | 0.76 | 0.909 | 0.992 | 0.685 | 0.622 | 0.513
10 | CN(CCO)CC[C@H](CSc1ccccc1)Nc1ccc(S(=O)(=O)NC(=O)c2ccc(N3CCC([C@@H](O)c4ccccc4-c4ccc(Cl)cc4)CC3)cc2)cc1S(=O)(=O)C(F)(F)F [AZD4320] + CS(=O)(=O)CCNCc1ccc(-c2ccc3ncnc(Nc4ccc(OCc5cccc(F)c5)c(Cl)c4)c3c2)o1 [Lapatinib] (first compound max 1 µM, 7x7, partner max 10 µM) | 0.989 | 0.492 | 0.273 | 0.974 | 0.778 | 0.967 | 0.862 | 0.479 | 0.909 | 0.616
11 | Cc1c2c(nn1C)CSCc1cc(n(C)n1)CSc1cc(c3ccccc3c1)OCCCc1c(C(=O)O)n(C)c3c-2c(Cl)ccc13 [AZD5991] + Nc1ccn([C@@H]2O[C@H](CO)[C@@H](O)C2(F)F)c(=O)n1 [Gemcitabine] (first compound max 1 µM, 7x7, partner max 0.3 µM) | 0.701 | 1 | 0.688 | 1 | 0.483 | 0.724 | 0.954 | 0.519 | 0.535 | 0.755
12 | C[C@@H](Oc1cc(-c2cnn(C3CCNCC3)c2)cnc1N)c1c(Cl)ccc(F)c1Cl [Crizotinib] + Cn1cnc2c(F)c(Nc3ccc(Br)cc3Cl)c(C(=O)NOCCO)cc21 [Selumetinib] (first compound max 10 µM, 7x7, partner max 10 µM) | 0.875 | 0.922 | 0.213 | 1 | 0.598 | 0.973 | 0.535 | 0.415 | 0.387 | 0.154
13 | CC1(C)CCC(CN2CCN(c3ccc(C(=O)NS(=O)(=O)c4ccc(NCC5CCOCC5)c([N+](=O)[O-])c4)c(Oc4cnc5[nH]ccc5c4)c3)CC2)=C(c2ccc(Cl)cc2)C1 [Venetoclax] + CS(=O)(=O)CCNCc1ccc(-c2ccc3ncnc(Nc4ccc(OCc5cccc(F)c5)c(Cl)c4)c3c2)o1 [Lapatinib] (first compound max 1 µM, 7x7, partner max 10 µM) | 0.909 | 0.478 | 0.115 | 0.958 | 0.395 | 0.917 | 0.385 | 0.165 | 0.308 | 0.471
14 | Cc1nc(-c2cn3c(n2)-c2ccc(-c4cnn(C(C)(C)C(N)=O)c4)cc2OCC3)n(C(C)C)n1 [Taselisib] + O=C(Nc1ccc2[nH]nc(-c3ccncc3)c2c1)[C@@H]1CCN(CC(=O)N2CCN(c3ccc(-c4ncccn4)cc3)CC2)C1 [SCH772984] (first compound max 10 µM, 7x7, partner max 5 µM) | 0.809 | 0.976 | 0.977 | 0.851 | 0.971 | 0.905 | 0.722 | 0.562 | 0.389 | 0.428
15 | O=C(c1cc(Cc2n[nH]c(=O)c3ccccc23)ccc1F)N1CCN(C(=O)C2CC2)CC1 [Olaparib] + CC1(C)CCC(CN2CCN(c3ccc(C(=O)NS(=O)(=O)c4ccc(NCC5CCOCC5)c([N+](=O)[O-])c4)c(Oc4cnc5[nH]ccc5c4)c3)CC2)=C(c2ccc(Cl)cc2)C1 [Venetoclax] (first compound max 10 µM, 7x7, partner max 1 µM) | 0.284 | 0.462 | 0.053 | 0.835 | 0.114 | 0.155 | 0.18 | 0.113 | 0.73 | 0.243
16 | C[C@@H](Nc1cc(F)cc(F)c1)c1cc(C(=O)N(C)C)cc2c(=O)cc(N3CCOCC3)oc12 [AZD8186] + C1CN(CCC1(C(=O)N[C@@H](CCO)C2=CC=C(C=C2)Cl)N)C3=NC=NC4=C3C=CN4 [AZD5363] (first compound max 10 µM, 7x7, partner max 10 µM) | 0.338 | 0.784 | 0.316 | 0.57 | 0.716 | 0.445 | 0.635 | 0.28 | 0.159 | 0.333
17 | O=C(c1cc(Cc2n[nH]c(=O)c3ccccc23)ccc1F)N1CCN(C(=O)C2CC2)CC1 [Olaparib] + COc1nnc2ccc(N3CCC(c4ccc(OCCN5CCN(C)C(=O)[C@H]5C)cc4)CC3)nn12 [AZD5153] (first compound max 10 µM, 7x7, partner max 1 µM) | 0.709 | 0.774 | 0.218 | 0.752 | 0.314 | 0.558 | 0.571 | 0.353 | 0.752 | 0.376
18 | C[C@@H](Oc1cc(-c2cnn(C3CCNCC3)c2)cnc1N)c1c(Cl)ccc(F)c1Cl [Crizotinib] + CC1=C(C(=CC=C1)Cl)NC(=O)C2=CN=C(S2)NC3=CC(=NC(=N3)C)N4CCN(CC4)CCO [Dasatinib] (first compound max 10 µM, 7x7, partner max 2 µM) | 0.961 | 0.882 | 0.961 | 0.974 | 0.883 | 0.968 | 0.799 | 0.63 | 0.433 | 0.181
19 | C[C@@H](Nc1cc(F)cc(F)c1)c1cc(C(=O)N(C)C)cc2c(=O)cc(N3CCOCC3)oc12 [AZD8186] + CC(=O)c1c(C)c2cnc(Nc3ccc(N4CCNCC4)cn3)nc2n(C2CCCC2)c1=O [Palbociclib] (first compound max 10 µM, 7x7, partner max 10 µM) | 0.755 | 0.835 | 0.311 | 0.682 | 0.693 | 0.38 | 0.643 | 0.447 | 0.578 | 0.389
